# PubChem BioAssay AID330 (DTP/NCI, 2004)
# Where “and” joins values, the source holds several entries; their conditions need not be identical. Equal entries are not always repeated. Toxic doses and inconclusive results are not listed.
# Test system: P388 leukemia ip, CD2F1 mice, survival T/C
# Assay: NCI In Vivo Anticancer Drug Screen. Data for tumor model P388 Leukemia (intraperitoneal) in CD2F1 (CDF1) mice
# Conditions: endpoint: median survival time, higher = longer survival
# Procedure, shortened: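 Mice carrying the transplanted tumor received test compound or vehicle. Survival was recorded in each group, and the value is the treated-group measurement divided by that of the vehicle-treated control group.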
# [1] = dose: 100.0 mg/kg/injection, schedule: Q04DX003 (ip), vehicle: saline
# [2] = dose: 200.0 mg/kg/injection, schedule: Q04DX003 (ip), vehicle: saline
# [3] = dose: 400.0 mg/kg/injection, schedule: Q04DX003 (ip), vehicle: saline
# [4] = dose: 50.0 mg/kg/injection, schedule: Q01DX009 (ip), vehicle: Klucel (hydroxypropylcellulose) (HPC)
# [5] = dose: 100.0 mg/kg/injection, schedule: Q01DX009 (ip), vehicle: Klucel (hydroxypropylcellulose) (HPC)
# [6] = dose: 200.0 mg/kg/injection, schedule: Q01DX009 (ip), vehicle: Klucel (hydroxypropylcellulose) (HPC)
# [7] = dose: 50.0 mg/kg/injection, schedule: Q01DX005 (ip), vehicle: saline with Tween-80
# [8] = dose: 100.0 mg/kg/injection, schedule: Q01DX005 (ip), vehicle: saline with Tween-80
# [9] = dose: 200.0 mg/kg/injection, schedule: Q01DX005 (ip), vehicle: saline with Tween-80
smiles,measurement,setting,value
Nc1cc(S(=O)(=O)c2ccc(O)c(N)c2)ccc1O,T/C,"dose: 100.0 mg/kg/injection, schedule: Q01DX009 (ip), vehicle: saline",111 % of control and 92 % of control
same,T/C,"dose: 200.0 mg/kg/injection, schedule: Q01DX009 (ip), vehicle: saline",102 % of control and 104 % of control
same,T/C,"dose: 400.0 mg/kg/injection, schedule: Q01DX009 (ip), vehicle: saline",100 % of control and 95 % of control
COc1cc2c(cc1OC)C(=O)C(=C1C=CN(C)C=C1)N=C2,T/C,[1],101 % of control
same,T/C,[2],95 % of control
same,T/C,[3],100 % of control
CNC(=O)Oc1ccc(Nc2ccccc2)cc1,T/C,"dose: 60.0 mg/kg/injection, schedule: Q01DX005 (ip), vehicle: Klucel (hydroxypropylcellulose) (HPC)",105 % of control
same,T/C,"dose: 120.0 mg/kg/injection, schedule: Q01DX005 (ip), vehicle: Klucel (hydroxypropylcellulose) (HPC)",99 % of control
same,T/C,"dose: 240.0 mg/kg/injection, schedule: Q01DX005 (ip), vehicle: Klucel (hydroxypropylcellulose) (HPC)",97 % of control
O=[N+]([O-])c1cc(S(=O)(=O)O)c2cccnc2c1O,T/C,[1],86 % of control
same,T/C,[2],89 % of control
same,T/C,[3],88 % of control
CNC(=O)OCc1c(COC(=O)NC)c(-c2ccc(S(C)(=O)=O)cc2)n(C)c1C,T/C,"dose: 12.5 mg/kg/injection, schedule: Q01DX009 (ip), vehicle: distilled water + Tween-80",111 % of control
same,T/C,"dose: 50.0 mg/kg/injection, schedule: Q01DX009 (ip), vehicle: distilled water + Tween-80",162 % of control
same,T/C,"dose: 100.0 mg/kg/injection, schedule: Q01DX009 (ip), vehicle: distilled water + Tween-80",161 % of control and 180 % of control
same,T/C,"dose: 200.0 mg/kg/injection, schedule: Q01DX009 (ip), vehicle: distilled water + Tween-80",198 % of control
Cc1coc2c1C(O)C1(C)C(C)CCC(O)C1C2=O (stereo not given),T/C,"dose: 7.5 mg/kg/injection, schedule: Q01DX009 (ip), vehicle: saline with Tween-80",101 % of control
same,T/C,"dose: 15.0 mg/kg/injection, schedule: Q01DX009 (ip), vehicle: saline with Tween-80",101 % of control
same,T/C,"dose: 30.0 mg/kg/injection, schedule: Q01DX009 (ip), vehicle: saline with Tween-80",101 % of control
same,T/C,"dose: 60.0 mg/kg/injection, schedule: Q01DX009 (ip), vehicle: saline with Tween-80",102 % of control
O=C1C=CC(=O)C2(CO)OC12 (stereo not given),T/C,"dose: 1.88 mg/kg/injection, schedule: Q04DX002 (ip), vehicle: saline with Tween-80",95 % of control
same,T/C,"dose: 3.75 mg/kg/injection, schedule: Q04DX002 (ip), vehicle: saline with Tween-80",102 % of control
C=C(C#N)CSc1c(Cl)c(Cl)c(Cl)c(Cl)c1Cl,T/C,"dose: 25.0 mg/kg/injection, schedule: Q04DX003 (ip), vehicle: Klucel (hydroxypropylcellulose) (HPC)",88 % of control
same,T/C,"dose: 50.0 mg/kg/injection, schedule: Q04DX003 (ip), vehicle: Klucel (hydroxypropylcellulose) (HPC)",91 % of control
same,T/C,"dose: 100.0 mg/kg/injection, schedule: Q04DX003 (ip), vehicle: Klucel (hydroxypropylcellulose) (HPC)",93 % of control and 95 % of control
same,T/C,"dose: 200.0 mg/kg/injection, schedule: Q04DX003 (ip), vehicle: Klucel (hydroxypropylcellulose) (HPC)",100 % of control and 103 % of control
same,T/C,"dose: 400.0 mg/kg/injection, schedule: Q04DX003 (ip), vehicle: Klucel (hydroxypropylcellulose) (HPC)",105 % of control
CCOC(=O)CC(SP(=S)(OC)OC)C(=O)OCC (stereo not given),T/C,"dose: 50.0 mg/kg/injection, schedule: Q01DX009 (ip), vehicle: saline with Tween-80",103 % of control
same,T/C,"dose: 100.0 mg/kg/injection, schedule: Q01DX009 (ip), vehicle: saline with Tween-80",112 % of control
same,T/C,"dose: 200.0 mg/kg/injection, schedule: Q01DX009 (ip), vehicle: saline with Tween-80",107 % of control
CC1CC(C)(C)N=C(CCC2CCCCCC2=O)O1 (stereo not given),T/C,"dose: 50.0 mg/kg/injection, schedule: Q04DX003 (ip), vehicle: saline with Tween-80",100 % of control
same,T/C,"dose: 100.0 mg/kg/injection, schedule: Q04DX003 (ip), vehicle: saline with Tween-80",100 % of control
same,T/C,"dose: 200.0 mg/kg/injection, schedule: Q04DX003 (ip), vehicle: saline with Tween-80",100 % of control
Cc1cc(O)c2c(c1)C(=O)C13C(=C2O)C(=O)C2C(O)C1C1C(O)C3C(=O)C3=C(O)c4c(O)cc(C)cc4C(=O)C321 (stereo not given),T/C,"dose: 3.12 mg/kg/injection, schedule: Q01DX005 (ip), vehicle: Klucel (hydroxypropylcellulose) (HPC)",110 % of control
same,T/C,"dose: 6.25 mg/kg/injection, schedule: Q01DX005 (ip), vehicle: Klucel (hydroxypropylcellulose) (HPC)",100 % of control
Cc1nn(C(N)=S)c(C)c1N=Nc1ccc(Cl)cc1Cl,T/C,"dose: 50.0 mg/kg/injection, schedule: Q04DX002 (ip), vehicle: saline with Tween-80",101 % of control and 105 % of control
same,T/C,"dose: 600.0 mg/kg/injection, schedule: Q04DX002 (ip), vehicle: saline with Tween-80",90 % of control
Cc1ccc(N=Cc2cccs2)c(Br)c1,T/C,[4],100 % of control
same,T/C,[5],118 % of control
same,T/C,[6],100 % of control
Cc1cc2n(n1)C(c1ccccc1)=C(c1ccccc1)OC2(c1ccccc1)c1ccccc1,T/C,"dose: 50.0 mg/kg/injection, schedule: Q04DX002 (ip), vehicle: Klucel (hydroxypropylcellulose) (HPC)",101 % of control
same,T/C,"dose: 100.0 mg/kg/injection, schedule: Q04DX002 (ip), vehicle: Klucel (hydroxypropylcellulose) (HPC)",97 % of control
same,T/C,"dose: 200.0 mg/kg/injection, schedule: Q04DX002 (ip), vehicle: Klucel (hydroxypropylcellulose) (HPC)",97 % of control
same,T/C,"dose: 400.0 mg/kg/injection, schedule: Q04DX002 (ip), vehicle: Klucel (hydroxypropylcellulose) (HPC)",98 % of control
CCC[CH2][Sn]1([CH2]CCC)[O]C(=O)C[S]1,T/C,"dose: 0.75 mg/kg/injection, schedule: Q01DX009 (ip), vehicle: saline",100 % of control
same,T/C,"dose: 1.5 mg/kg/injection, schedule: Q01DX009 (ip), vehicle: saline",108 % of control
same,T/C,"dose: 2.0 mg/kg/injection, schedule: Q01DX009 (ip), vehicle: saline with Tween-80",115 % of control
same,T/C,"dose: 2.0 mg/kg/injection, schedule: Q04DX003 (ip), vehicle: saline with Tween-80",118 % of control
same,T/C,"dose: 4.5 mg/kg/injection, schedule: Q04DX003 (ip), vehicle: saline with Tween-80",150 % of control
C[Si](C)(C)C1c2ccccc2-c2[nH]c3ccccc3c21 (stereo not given),T/C,"dose: 6.25 mg/kg/injection, schedule: Q01DX009 (ip), vehicle: Klucel (hydroxypropylcellulose) (HPC)",101 % of control
same,T/C,"dose: 12.5 mg/kg/injection, schedule: Q01DX009 (ip), vehicle: Klucel (hydroxypropylcellulose) (HPC)",87 % of control
same,T/C,"dose: 25.0 mg/kg/injection, schedule: Q01DX009 (ip), vehicle: Klucel (hydroxypropylcellulose) (HPC)",102 % of control
CSc1nc(N)c(C(=O)Nc2ccccc2)s1,T/C,[4],103 % of control
same,T/C,[5],101 % of control
same,T/C,[6],100 % of control
Clc1ccc(C(Nc2nncs2)Nc2nncs2)cc1,T/C,"dose: 60.0 mg/kg/injection, schedule: Q01DX005 (ip), vehicle: saline with Tween-80",94 % of control
same,T/C,"dose: 120.0 mg/kg/injection, schedule: Q01DX005 (ip), vehicle: saline with Tween-80",93 % of control
same,T/C,"dose: 240.0 mg/kg/injection, schedule: Q01DX005 (ip), vehicle: saline with Tween-80",98 % of control
C[n+]1cccc(NC(=O)c2ccccc2)c1,T/C,"dose: 7.5 mg/kg/injection, schedule: Q01DX005 (ip), vehicle: saline with Tween-80",102 % of control
same,T/C,"dose: 15.0 mg/kg/injection, schedule: Q01DX005 (ip), vehicle: saline with Tween-80",99 % of control
same,T/C,"dose: 30.0 mg/kg/injection, schedule: Q01DX005 (ip), vehicle: saline with Tween-80",113 % of control
CC(=O)C1=C(C)O/C(=C/c2cccc(Cl)c2)C1=O,T/C,"dose: 12.5 mg/kg/injection, schedule: Q01DX005 (ip), vehicle: saline with Tween-80",107 % of control
same,T/C,"dose: 25.0 mg/kg/injection, schedule: Q01DX005 (ip), vehicle: saline with Tween-80",118 % of control
same,T/C,[7],120 % of control and 121 % of control
same,T/C,[8],118 % of control
same,T/C,[9],119 % of control
CCOC(=O)C1(N=O)CCCCC1=O (stereo not given),T/C,"dose: 100.0 mg/kg/injection, schedule: Q01DX001 (ip), vehicle: alcohol",103 % of control
same,T/C,"dose: 200.0 mg/kg/injection, schedule: Q01DX001 (ip), vehicle: alcohol",97 % of control
same,T/C,"dose: 400.0 mg/kg/injection, schedule: Q01DX001 (ip), vehicle: alcohol",108 % of control
O=C(c1ccccc1)C1C(=O)c2ccccc2C1=O,T/C,"dose: 60.0 mg/kg/injection, schedule: Q01DX005 (ip), vehicle: saline",95 % of control
same,T/C,"dose: 120.0 mg/kg/injection, schedule: Q01DX005 (ip), vehicle: saline",99 % of control
same,T/C,"dose: 240.0 mg/kg/injection, schedule: Q01DX005 (ip), vehicle: saline",95 % of control
CCN(Cc1cccc(S(=O)(=O)O)c1)c1ccc(C(=C2C=CC(=[N+](CC)Cc3cccc(S(=O)(=O)O)c3)C=C2)c2ccccc2Cl)cc1,T/C,[7],103 % of control
same,T/C,[8],99 % of control
same,T/C,[9],110 % of control
